Source: patent US8975417B2, “Pyrazolopyrrolidine derivatives and their use in the treatment of disease” (Novartis AG, priority 2013, dated 2015)

What was measured:
[1] = target: His-CREBBP (1081-1197) bromodomain (Homo sapiens (Human), UniProt Q92793); experiment: AlphaScreen in-vitro binding assay for CREBBP; conditions: biochemical
Procedure, shortened: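 Ni-chelate acceptor and streptavidin donor beads (45 µg/mL each, in 50 mM HEPES pH 7.5, 150 mM NaCl, 0.02% BSA) were then added for 60 min at room temperature. IC50 came from 8-point non-linear regression.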

MV-4-11 cells = experiment: Cell growth inhibition assay (CellTiter-Glo), MV-4-11; assay type: cell-based; conditions: Homo sapiens, MV4-11, read-out: MV-4-11 TGI
Procedure, shortened: (§1)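 Compounds tested as 3-fold dilution series starting at 10 μM (DMSO 0.1% final); viability read by cellular ATP (CTG luminescence) at 37° C. Signal corrected for no-cell background and a day-0 plate, scaled −100% to 100%; four-parameter fitting gives IC50 and TGI.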

K-562 cells = experiment: Cell growth inhibition assay (CellTiter-Glo), K-562; assay type: cell-based, human; conditions: Homo sapiens, K562, read-out: K-562 TGI
Procedure, shortened: as §1

[2] = target: nuclear BRD4-NUT foci in HCC2494 NUT midline carcinoma cells (Homo sapiens (Human), UniProt O60885+Q86Y26); experiment: Nut-foci formation assay; assay type: cell-based; conditions: 24 hours, read-out: HCS Brd4-NUT IC50
Procedure, shortened: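 HCC2494 cells carrying BRD4-NUT, treated 24 h at 37 °C with 3-fold dilutions from 10 μM. Fixed and stained with anti-NUT antibody, imaged automatically to count nuclear foci per nucleus.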

Sequence of His-CREBBP (1081-1197) bromodomain (Q92793 1081-1197): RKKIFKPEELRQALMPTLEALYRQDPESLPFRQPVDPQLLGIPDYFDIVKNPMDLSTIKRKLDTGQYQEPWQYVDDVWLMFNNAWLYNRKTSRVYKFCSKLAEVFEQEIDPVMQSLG

| IC50 [1] | IC50 [2] | Structure (SMILES) | IC (total growth inhibition) (MV-4-11 cells) | IC (total growth inhibition) (K-562 cells) |
| --- | --- | --- | --- | --- |
| > 37000 nM | 2240 nM | CCc1nn(C2CC2)c2c1[C@H](c1ccc(Cl)cc1)N(c1cc(C)c3nnc(C)n3c1)C2=O [Example 106, (S)-4-(4-chlorophenyl)-1-cyclopropyl-5-(3,8-dimethyl-[1,2,4]triazolo[4,3-a]pyridin-6-yl)-3-ethyl-4,5-dihydropyrrolo[3,4-c]pyrazol-6(1H)-one] | 1.48 µM | > 10 µM |
| 6900 nM | 2.9 nM | CCc1nn(C2CC2)c2c1[C@@H](c1ccc(Cl)cc1)N(c1cc(C)c3nnc(C)n3c1)C2=O [Example 107, (R)-4-(4-chlorophenyl)-1-cyclopropyl-5-(3,8-dimethyl-[1,2,4]triazolo[4,3-a]pyridin-6-yl)-3-ethyl-4,5-dihydropyrrolo[3,4-c]pyrazol-6(1H)-one] | 0.0113 µM | > 10 µM |
| > 37000 nM | 635 nM | CCc1nn(CCOCC(F)(F)F)c2c1C(c1ccc(Cl)cc1)N(c1cc(OC)c3nnc(C)n3c1)C2=O (stereo not shown) [Example 108, 4-(4-chlorophenyl)-3-ethyl-5-(8-methoxy-3-methyl-[1,2,4]triazolo[4,3-a]pyridin-6-yl)-1-(2-(2,2,2-trifluoroethoxy)ethyl)-4,5-dihydropyrrolo[3,4-c]pyrazol-6(1H)-one] | 0.445 µM | > 10 µM |
| > 37000 nM | 43.8 nM | COc1ncccc1-n1nc(C)c2c1C(=O)N(c1cc(C)c3nnn(C)c3n1)C2c1ccc(Cl)cc1 (stereo not shown) [Example 109, 4-(4-chlorophenyl)-5-(3,7-dimethyl-3H-[1,2,3]triazolo[4,5-b]pyridin-5-yl)-1-(2-methoxypyridin-3-yl)-3-methyl-4,5-dihydropyrrolo[3,4-c]pyrazol-6(1H)-one] | 0.0381 µM | > 10 µM |
| > 37000 nM | 6.42 nM | Cc1nn(C2CC2)c2c1C(c1ccc(Cl)cc1)N(c1cc(C)c3nnn(C)c3n1)C2=O (stereo not shown) [Example 110, 4-(4-chlorophenyl)-1-cyclopropyl-5-(3,7-dimethyl-3H-[1,2,3]triazolo[4,5-b]pyridin-5-yl)-3-methyl-4,5-dihydropyrrolo[3,4-c]pyrazol-6(1H)-one] | 0.0102 µM | > 10 µM |
| 29700 nM | 34.3 nM | COc1ncccc1-n1nc(C)c2c1C(=O)N(c1cc(C)c3nnc(C)n3n1)C2c1ccc(Cl)cc1 (stereo not shown) [Example 111, 4-(4-chlorophenyl)-5-(3,8-dimethyl-[1,2,4]triazolo[4,3-b]pyridazin-6-yl)-1-(2-methoxypyridin-3-yl)-3-methyl-4,5-dihydropyrrolo[3,4-c]pyrazol-6(1H)-one] | 0.0306 µM | > 10 µM |
| > 37000 nM | 3350 nM | Cc1nn(C2CC2)c2c1C(c1ccc(Cl)cc1)N(c1cc(N(C)C(=O)OC(C)(C)C)c3nnc(C)n3n1)C2=O (stereo not shown) [Example 112, tert-butyl (6-(4-(4-chlorophenyl)-1-cyclopropyl-3-methyl-6-oxopyrrolo[3,4-c]pyrazol-5(1H,4H,6H)-yl)-3-methyl-[1,2,4]triazolo[4,3-b]pyridazin-8-yl)(methyl)carbamate] | 1.21 µM | > 10 µM |
| > 37000 nM | 23.2 nM | Cc1nn(-c2ccnn2C)c2c1C(c1ccc(Cl)cc1)N(c1cc(C)c3nnc(C)n3n1)C2=O (stereo not shown) [Example 114, 4-(4-chlorophenyl)-5-(3,8-dimethyl-[1,2,4]triazolo[4,3-b]pyridazin-6-yl)-3-methyl-1-(1-methyl-1H-pyrazol-5-yl)-4,5-dihydropyrrolo[3,4-c]pyrazol-6(1H)-one] | 0.0443 µM | > 10 µM |
| 1200 nM | 39.7 nM | CCn1nc2c(c1C)C(c1ccc(Cl)cc1)N(c1cc(C)c3nnc(C)n3c1)C2=O (stereo not shown) [Example 115, 4-(4-chlorophenyl)-5-(3,8-dimethyl-[1,2,4]triazolo[4,3-a]pyridin-6-yl)-2-ethyl-3-methyl-4,5-dihydropyrrolo[3,4-c]pyrazol-6(2H)-one] | 0.0482 µM | > 10 µM |
| 15000 nM | 27 nM | CCn1nc(C)c2c1C(=O)N(c1cc(C)c3nnc(C)n3c1)C2c1ccc(Cl)cc1 (stereo not shown) [Example 116, 4-(4-chlorophenyl)-5-(3,8-dimethyl-[1,2,4]triazolo[4,3-a]pyridin-6-yl)-1-ethyl-3-methyl-4,5-dihydropyrrolo[3,4-c]pyrazol-6(1H)-one] | 0.0301 µM | > 10 µM |
| > 37000 nM | 24.3 nM | Cc1cc(N2C(=O)c3c(c(C4CC4)nn3-c3ccnn3C)C2c2ccc(Cl)cc2)cn2c(C)nnc12 (stereo not shown) [Example 117, 4-(4-chlorophenyl)-3-cyclopropyl-5-(3,8-dimethyl-[1,2,4]triazolo[4,3-a]pyridin-6-yl)-1-(1-methyl-1H-pyrazol-5-yl)-4,5-dihydropyrrolo[3,4-c]pyrazol-6(1H)-one] | 0.0391 µM | > 10 µM |
| 4300 nM | 65.4 nM | Cc1nn(-c2ccnn2C)c2c1[C@@H](c1ccc(Cl)cc1)N(c1cc(C)c(=O)n(C)c1)C2=O [Example 120, (R)-4-(4-chlorophenyl)-5-(1,5-dimethyl-6-oxo-1,6-dihydropyridin-3-yl)-3-methyl-1-(1-methyl-1H-pyrazol-5-yl)-4,5-dihydropyrrolo[3,4-c]pyrazol-6(1H)-one] | 0.106 µM | > 10 µM |
| > 37000 nM | 6110 nM | Cc1nn(-c2ccnn2C)c2c1[C@H](c1ccc(Cl)cc1)N(c1cc(C)c(=O)n(C)c1)C2=O [Example 121, (S)-4-(4-chlorophenyl)-5-(1,5-dimethyl-6-oxo-1,6-dihydropyridin-3-yl)-3-methyl-1-(1-methyl-1H-pyrazol-5-yl)-4,5-dihydropyrrolo[3,4-c]pyrazol-6(1H)-one] | 1.23 µM | > 10 µM |
| > 37000 nM | 7.3 nM | Cc1nn(C2CC2)c2c1[C@@H](c1ccc(Cl)cc1)N(c1cc(C)c3nnc(C)n3n1)C2=O [Example 122, (R)-4-(4-chlorophenyl)-1-cyclopropyl-5-(3,8-dimethyl-[1,2,4]triazolo[4,3-b]-pyridazin-6-yl)-3-methyl-4,5-dihydropyrrolo[3,4-c]pyrazol-6(1H)-one] | 0.00842 µM | > 10 µM |

| Structure (SMILES) | IC50 [1] | IC50 [2] | IC (total growth inhibition) (MV-4-11 cells) | IC (total growth inhibition) (K-562 cells) |
| --- | --- | --- | --- | --- |
| Cc1nn(-c2ccnn2C)c2c1[C@H](c1ccc(Cl)cc1)N(c1cc(C)c3nnc(C)n3c1)C2=O [Example 124, (S)-4-(4-chlorophenyl)-5-(3,8-dimethyl-[1,2,4]triazolo[4,3-a]pyridin-6-yl)-3-methyl-1-(1-methyl-1H-pyrazol-5-yl)-4,5-dihydropyrrolo[3,4-c]pyrazol-6(1H)-one] | > 37000 nM | 1730 nM | 0.73 µM | > 10 µM |
| Cc1nn(-c2ccnn2C)c2c1[C@@H](c1ccc(Cl)cc1)N(c1cc(C)c3nnc(C)n3c1)C2=O [Example 125, (R)-4-(4-chlorophenyl)-5-(3,8-dimethyl-[1,2,4]triazolo[4,3-a]pyridin-6-yl)-3-methyl-1-(1-methyl-1H-pyrazol-5-yl)-4,5-dihydropyrrolo[3,4-c]pyrazol-6(1H)-one] | 21000 nM | 32.3 nM | 0.0399 µM | > 10 µM |
